In patent US20110105436A1, “HETEROARYL COMPOUNDS, COMPOSITIONS, AND METHODS OF USE IN CANCER TREATMENT” (AUCKLAND UNISERVICES LIMITED, priority 2008, published 2011):

Experiments:
[1] = tested on: SN12C and SN12C+shVHL tumor samples; assay: Ki67 immunostaining of tumor samples; type: in vivo, mice; settings: RCC deficient in VHL or with wild-type VHL, FIG. 7H
Method: B. XTT assay in RCC4 and RCC4/VHL in presence of STF-62247 (0-40 μM). Each point of the cell survival is calculated by the average of three different experiments in duplicate as the percent of treated on untreated plate. The error bars are represented as the standard error of the mean (SEM) C. qRT-PCR for Glutl, VEGF, PDF and PGK in RCC4 cells with or without HIF-1a, HIF-2a shRNA and in RCC4/VHL. D. Hoescht staining in RCC4 and RCC4/VHL cells with 1.25 μM of STF-62247 for 2 days. Camptothecin was used as positive control E. FACS analysis for apoptosis after an annexin V-FITC staining in presence or absence of propidium iodine (PI) in cells after a treatment in same conditions than in C. F. Immunoblot for active caspase-3 in RCC4 and RCC4/VHL following treatment with 1.25 μM of STF-62247 for 24 hours. Staurosporine was used as positive control (0.2 μM for 24 hours). G,H. Immunostaining of caspase-3 and Ki67 respectively in SN12C and SN12C+shVHL tumor samples untreated or treated with 30 μM of STF-62247.1. Immunoblot for p53 and SerlS phospho-p53 in RCC4 and RCC4/VHL cells after a treatment with 1.25 μM of STF-62247 or doxorubicin for 24 hours.

yeast deletion strains = assay: Killing curves of yeast deletion strains; type: cell-based, S. cerevisiae
Text: Screen in yeast and killing curves. Genotypes of the parental yeast strain BY4743, construction of the homozygous diploid deletion strains, and construction of the homozygous diploid deletion pool have been described previously (Thomas, G. V., et al., Nat. Med. 2006, 12, 122). A mutant pool of 4728 nonessential homozygous diploid deletion strains was used. The parental diploid strain BY4743 was used as control in survival and complementation assays. […]
A. Killing curves for 8 deletion yeast strains. Wild-type, ALG5, APS1, CLA4, DRS2, OSH3, VPS20, VPS25, YPT31 were incubated with STF-62247 (0-100 μM) for 1 hour and colony formation was evaluated after two days. Each point of the survival is calculated by the average of two different experiments in triplicate and as the percent of treated on untreated plate. B. Quantitative real time PCR for CHMP6, PAK2, RAB11a, OSBP3 and ALG5 in RCC4 and RCC4/VHL. Histogram is calculated by the average of three different experiments in triplicate as the percent of RCC4/VHL on RCC4 cells. […] Colony formation was evaluated as described before. *p<0.05 represents the difference between VHL cells and VHL with siRNA in presence of 5 μM of STF-62247.

Cc1cccc(Nc2nc(-c3ccncc3)cs2)c1 [Compound 5, N-(3-Methylphenyl)-4-(4-pyridinyl)-1,3-thiazol-2-amine]
proliferation by Ki67 staining [1]: no difference in proliferation | sensitivity of yeast deletion strain (yeast deletion strains; ATG8 deletion strain, data not shown): did not exhibit sensitivity to STF-62247 | toxicity in yeast deletion strains (yeast deletion strains; CLA4, VPS20, ALG5, OSH3 and YPT31 deletion strains, 0-100 μM, 1 h): significant toxicity in response to STF-62247
